Source: patent US20080145317A1, “EFFERVESCENT FORMULATIONS OF FLORFENICOL FOR ADDITION IN DRINKING WATER SYSTEMS” (Schering Corporation, priority 2006, published 2008)

Tests used:
[1] = stated in background, no method; cited from earlier work
[2] = Dissolution test, USP apparatus 2, paddle agitation at 50 rpm, Milli-Q water; format: physicochemical; conditions: 25° C., 0.1 mg/mL final
Protocol: The dissolution medium was Milli-Q water maintained at a temperature of 25° C. The effervescent formulations were added directly to the water in the correct amount to achieve a final concentration of 0.1 mg/mL of florfenicol. Aliquots of the resulting solution were withdrawn and analyzed using either UV-VIS spectrophotometry or HPLC, the latter to exclude excipient contribution or degradation of florfenicol. For HPLC analysis, an organic/aqueous mobile phase was used for the separation on a C18, reverse phase column. Detection was performed by UV absorption spectrometry. The percent dissolved was calculated versus an external reference standard prepared at the nominal concentration of the analyte. Pure florfenicol was analyzed as a comparator to assess the effectiveness of the effervescent formulation. Referring now to the tables below, it can be seen that pure florfenicol was only 25% dissolved in 15 minutes and 43% dissolved within 60 minutes. […] Therefore, the effervescent formulation increased the florfenicol rate of dissolution and allowed a complete dissolution within 5 minutes of the addition to water.

% Drug in Solution ([2]; Time 0, pure florfenicol in Milli-Q water): 0% | % Drug in Solution ([2]; Time 15 (minutes), Milli-Q water): 25% | % Drug in Solution ([2]; Time 30 (minutes), Milli-Q water): 35% | % Drug in Solution ([2]; Time 45 (minutes), Milli-Q water): 36% | % Drug in Solution ([2]; Time 60 (minutes), Milli-Q water): 43%
SMILES: CS(=O)(=O)c1ccc([C@@H](O)[C@@H](CF)NC(=O)C(Cl)Cl)cc1 (relative stereo) [Pure Florfenicol, [R-(R*, S*)]-2,2-Dichloro-N-[1-(fluoromethyl)-2-hydroxy-2-[4-[(methylsulfonyl)phenyl]-ethyl]acetamide]
water-solubility [1]: 1230 µg/mL
